Experimental data reported in US5328909A, “Cyclopropenone derivatives” (Mitsubishi Kasei Corporation, priority 1991, dated 1994).
Read-outs that look alike come from different tables or passages of the source.

Columns and labels:
Format in all cases: biochemical
papain = target: T1, papain (Carica papaya, UniProt P00784); assay: Thiol protease inhibitory activity against papain (P-3125, Sigma)
T1 sequence (P00784 134-345): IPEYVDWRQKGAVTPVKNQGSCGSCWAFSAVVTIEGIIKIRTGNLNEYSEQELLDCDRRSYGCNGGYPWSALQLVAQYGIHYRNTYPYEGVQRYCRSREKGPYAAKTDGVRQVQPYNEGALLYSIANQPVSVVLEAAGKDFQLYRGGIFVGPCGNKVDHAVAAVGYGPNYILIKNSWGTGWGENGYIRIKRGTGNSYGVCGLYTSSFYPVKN
Procedure: (§1) Inhibitory activity against papain (P-3125, Sigma) and cathepsin B (C-6286, Sigma) was assayed according to the method described in a literature [Biochemical Journal, 201, 189 (1982)]. Capthesin L was purified from rat kidney according to the method in a literature [Journal of Biochemistry, 100, 35 (1986)], and the inhibitory activity against it was assayed in the same manner as described in the above literature for cathepsin B. Further, m-calpain was purified from rat brain according to a known method [Journal of Biological Chemistry, 254, p.3210 (1984)] and the inhibitory activity against it was assayed by a method described in a literature [Journal of Biological Chemistry, 259, 12489 (1984)]. The results are showing in Tables 3 and 4. It is evident from Tables 3 and 4 that the compounds in the present invention have a potent inhibitory activity against thiol proteases such as papain, cathepsin B, cathepsin L, m-calpain or the like.

cathepsin B = target: T2, cathepsin B (Bos taurus, UniProt P07688); assay: Thiol protease inhibitory activity against cathepsin B (C-6286, Sigma)
T2 construct: purchased Sigma C-6286
Procedure: as §1

cathepsin L = target: T3, cathepsin L (Rattus norvegicus, UniProt P07154); assay: Thiol protease inhibitory activity against cathepsin L purified from rat kidney
T3 construct: Capthesin L was purified from rat kidney; from tissue; host or cells: rat kidney
Procedure: as §1

m-calpain = target: T4, m-calpain (Rattus norvegicus, UniProt Q07009); assay: Thiol protease inhibitory activity against m-calpain purified from rat brain
T4 construct: m-calpain was purified from rat brain; from tissue; host or cells: rat brain
T4 sequence (Q07009 20-700 limits assumed): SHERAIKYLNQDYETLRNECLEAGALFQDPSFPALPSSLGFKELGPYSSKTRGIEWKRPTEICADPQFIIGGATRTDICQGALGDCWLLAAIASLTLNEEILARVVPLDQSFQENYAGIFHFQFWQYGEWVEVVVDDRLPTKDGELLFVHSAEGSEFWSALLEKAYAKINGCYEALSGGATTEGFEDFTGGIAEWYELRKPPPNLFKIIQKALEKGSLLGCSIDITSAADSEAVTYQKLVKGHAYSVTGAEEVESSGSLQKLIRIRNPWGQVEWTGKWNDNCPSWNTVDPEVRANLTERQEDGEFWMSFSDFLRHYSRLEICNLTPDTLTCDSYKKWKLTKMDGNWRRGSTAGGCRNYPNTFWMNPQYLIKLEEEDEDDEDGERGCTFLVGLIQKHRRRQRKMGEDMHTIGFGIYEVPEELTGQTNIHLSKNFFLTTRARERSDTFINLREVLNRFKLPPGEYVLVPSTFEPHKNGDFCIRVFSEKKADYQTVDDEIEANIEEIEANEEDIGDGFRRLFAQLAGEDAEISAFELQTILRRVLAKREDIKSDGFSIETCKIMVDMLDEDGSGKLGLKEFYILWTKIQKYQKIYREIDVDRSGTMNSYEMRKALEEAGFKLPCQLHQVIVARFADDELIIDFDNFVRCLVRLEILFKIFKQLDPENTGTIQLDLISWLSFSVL
T4 sequence (Q64537 1-270 partner): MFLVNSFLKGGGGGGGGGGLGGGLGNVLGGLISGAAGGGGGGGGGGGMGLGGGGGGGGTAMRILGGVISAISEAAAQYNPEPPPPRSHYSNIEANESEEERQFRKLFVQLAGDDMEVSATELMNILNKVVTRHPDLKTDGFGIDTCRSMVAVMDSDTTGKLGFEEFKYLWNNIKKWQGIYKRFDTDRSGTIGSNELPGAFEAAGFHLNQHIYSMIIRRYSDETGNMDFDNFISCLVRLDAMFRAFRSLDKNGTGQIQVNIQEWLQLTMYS
Procedure: as §1

[1] = Table 3, read-out: IC50 (μM) papain
[2] = Table 3, read-out: IC50 (μM) cathepsin B
[3] = Table 3, rat kidney enzyme, read-out: IC50 (μM) cathepsin L
[4] = Table 3, rat brain enzyme, read-out: IC50 (μM) m-calpain
[5] = Table 4, rat brain enzyme, read-out: Inhibitory activity against m-calpain IC50

T3 sequence (P07154 114-288 limits assumed): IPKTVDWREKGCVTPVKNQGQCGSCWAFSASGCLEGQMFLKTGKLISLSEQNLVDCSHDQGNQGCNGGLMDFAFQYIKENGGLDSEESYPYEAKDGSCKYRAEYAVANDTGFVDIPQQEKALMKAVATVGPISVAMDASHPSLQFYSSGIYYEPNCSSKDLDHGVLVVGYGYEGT
T3 sequence (P07154 291-334 limits assumed): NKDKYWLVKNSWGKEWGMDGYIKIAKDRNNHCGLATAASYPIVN

| SMILES | IC50 (papain; [1]) [µM] | IC50 (cathepsin B; [2]) [µM] | IC50 (cathepsin L; [3]) [µM] | IC50 (m-calpain; [4]) [µM] | IC50 (m-calpain; [5]) [µM] | other results |
| --- | --- | --- | --- | --- | --- | --- |
| CCCC[C@H](NC(=O)[C@H](CC(C)C)NC(=O)OCC1CCCCC1)C(O)c1cc1=O (stereo partly drawn) [6 (No. 15), 2-[(2S)-2-((S)-2-cyclohexylmethoxycarbonylamino-4-methylvalerylamino)-1-hydroxyhexyl]cyclopropenone] | 0.076 | 0.16 | 0.54 | 0.81 |  |  |
| CC(C)C[C@H](NC(=O)OCc1ccccc1)C(=O)N[C@@H](CC(C)C)C(O)c1cc1=O (stereo partly drawn) [5 (No. 10), 2-[(2S)-2-((S)-2-benzyloxycarbonylamino-4-methylvalerylamino)-1-hydroxy-4-methylpentyl]cyclopropenone] | > 100 | 3 | 0.75 | 2.3 |  |  |
| CC(C)C[C@H](NC(=O)OCC1CCCCC1)C(=O)N[C@@H](C(C)C)C(O)c1cc1=O (stereo partly drawn) [4 (No. 4), 2-[(2S)-2-((S)-2-cyclohexylmethoxycarbonylamino-4-methylvalerylamino)-1-hydroxy-3-methylbutyl]cyclopropenone] | 5.8 | 0.41 |  | 0.5 |  |  |
| CC(C)C[C@H](NC(=O)OCc1ccccc1)C(=O)N[C@@H](C(C)C)C(O)c1c(-c2ccccc2)c1=O (stereo partly drawn) [26 (No. 83), 2-[(2S)-2-((S)-2-benzyloxycarbonylamino-4-methylvalerylamino)-1-hydroxy-3-methylbutyl]-3-phenylcyclopropenone] | 4.2 | 43 | 5.8 | 1.6 |  |  |
| CC(C)C[C@H](NC(=O)OCC1CCCCC1)C(=O)N[C@@H](C(C)C)[C@H](O)c1c(-c2ccccc2)c1=O [2 (No. 77), 2-[(1R, 2S)-2-{(S)-2-cyclohexylmethoxycarbonylamino-4-methylvalerylamino}-1-hydroxy-3-methylbutyl]-3-phenylcyclopropenone] | 22 | 0.044 | 0.0012 | 3.3 |  |  |
| CCCC[C@H](NC(=O)[C@H](CC(C)C)NC(=O)OCc1ccccn1)C(O)c1c(-c2ccccc2)c1=O (stereo partly drawn) [96 (No. 282)] |  | 28 | 4.6 | 5.7 |  | IC50 (papain): 7 µM |
| CC(C)C[C@H](NC(=O)OCc1ccccc1)C(=O)N[C@@H](C(C)C)[C@@H](O)c1c(-c2ccccc2)c1=O [25 (No. 83), 2-[(1S, 2S)-2-((S)-2-benzyloxycarbonylamino-4-methylvalerylamino)-1-hydroxy-3-methylbutyl]-3-phenylcyclopropenone] | 13 | 32 | 5.7 | 2.1 |  |  |
| CCCC[C@H](NC(=O)[C@H](CC(C)C)NC(=O)OCc1ccccc1)C(O)c1cc1=O (stereo partly drawn) [7 (No. 16), 2-[(2S)-2-((S)-2-benzyloxycarbonylamino-4-methylvalerylamino)-1-hydroxyhexyl]cyclopropenone] | 0.14 | 0.32 | 0.24 | 2.4 |  |  |
| CCCC[C@H](NC(=O)[C@H](CC(C)C)NC(=O)OCC1CCCCC1)C(O)c1c(-c2ccccc2)c1=O (stereo partly drawn) [94 (No. 280), 2-[(2S)-2-((S)-2-cyclohexylmethoxycarbonylamino-4-methylvalerylamino)-1-hydroxyhexyl]-3-phenylcyclopropenone] | 0.074 | 1 | 0.062 | 2.7 |  |  |
| CC(C)COC(=O)N[C@@H](CC(C)C)C(=O)N[C@@H](C(C)C)[C@@H](O)c1c(-c2ccccc2)c1=O [20 (No. 72), 2-[(1S, 2S)-1-hydroxy-2-((S)-2-isobutoxycarbonylamino-4-methylvalerylamino)-3-methylbutyl]-3-phenylcyclopropenone] |  |  |  |  | 1.3 |  |
| Cc1ccccc1C(=O)N[C@@H](CC(C)C)C(=O)N[C@@H](C(C)C)[C@@H](O)c1c(-c2ccccc2)c1=O [63 (No. 184), 2-[(1S, 2S)-1-hydroxy-3-methyl-2-{(S)-4-methyl-2-(2-toluoylamino)valerylamino}butyl]-3-phenylcyclopropenone] |  |  |  |  | 1.6 |  |
| CC(C)C[C@H](NC(=O)c1cccs1)C(=O)N[C@@H](C(C)C)[C@@H](O)c1c(-c2ccccc2)c1=O [68 (No. 200), 2-[(1S, 2S)-1-hydroxy-3-methyl-2-{(S)-4-methyl-2-(2-thenoylamino)valerylamino}butyl]-3-phenylcyclopropenone] |  |  |  |  | 3.1 |  |
| CCCC[C@H](NC(=O)[C@H](CC(C)C)NC(=O)OCC1CCCCC1)C(O)c1c(-c2ccc([Si](C)(C)C)o2)c1=O (stereo partly drawn) [114 (No. 376), 2-[(2S)-2-((S)-2-cyclohexylmethoxycarbonylamino-4-methylvalerylamino)-1-hydroxy-1-hexyl]-3-(5-trimethylsilyl-2-furil)cyclopropenone] | 0.68 |  |  |  |  | IC50 (cathepsin B): 2.5 µM; IC50 (cathepsin L): 0.58 µM; IC50 (m-calpain): 5.6 µM |
| COc1ccc(S(=O)(=O)N[C@@H](CC(C)C)C(=O)N[C@@H](C(C)C)[C@@H](O)c2c(-c3ccccc3)c2=O)cc1 [87 (No. 257), 2-[(1S, 2S)-1-hydroxy-2-{(S)-2-(4-methoxyphenylsulfonylamino)-4-methylvalerylamino}-3-methylbutyl]-3-phenylcyclopropenone] |  |  |  |  | 1 |  |
| CC(C)C[C@H](NC(=O)CCS(=O)(=O)c1ccccc1)C(=O)N[C@@H](C(C)C)[C@@H](O)c1c(-c2ccccc2)c1=O [57 (No. 170)] |  |  |  |  | 3.1 |  |
| CC(C)C[C@H](NS(=O)(=O)c1cccc2cccnc12)C(=O)N[C@@H](C(C)C)[C@@H](O)c1c(-c2ccccc2)c1=O [91 (No. 265), 2-[(1S, 2S)-1-hydroxy-3-methyl-2-{(S)-4-methyl-2-(8-quinolylsulfonylamino)valerylamino}butyl]-3-phenylcyclopropenone] |  |  |  |  | 1.9 |  |
| CC(C)C[C@H](NC(=O)COc1ccccc1Cl)C(=O)N[C@@H](C(C)C)[C@@H](O)c1c(-c2ccccc2)c1=O [50 (No. 152), 2-[(1S, 2S)-2-{(S)-2-(2-chlorophenoxyacetylamino)-4-methylvalerylamino}-1-hydroxy-3-methylbutyl]-3-phenylcyclopropenone] |  |  |  |  | 1.2 |  |
| CC(C)C[C@H](NC(=O)Oc1ccccc1)C(=O)N[C@@H](C(C)C)[C@@H](O)c1c(-c2ccccc2)c1=O [33 (No. 102), 2-[(1S, 2S)-1-hydroxy-3-methyl-2-((S)-4-methyl-2-phenoxycarbonylamino)valerylamino]-3-phenylcyclopropenone] |  |  |  |  |  | IC50 (m-calpain): 0.84 µM |
| Cc1cc(C(=O)N[C@@H](CC(C)C)C(=O)N[C@@H](C(C)C)[C@@H](O)c2c(-c3ccccc3)c2=O)n(C)n1 [69 (No. 203), 2-[(1S, 2S)-2-{(S)-2-(1,3-dimethyl-5-pyrazolylcarbonylamino)-4-methylvalerylamino}-1-hydroxy-3-methylbutyl]-3-phenylcyclopropenone] |  |  |  |  | 3 |  |
| CC(C)C[C@H](NC(=O)c1ccncc1)C(=O)N[C@@H](C(C)C)[C@@H](O)c1c(-c2ccccc2)c1=O [72 (No. 213), 2-[(1S, 2S)-1-hydroxy-2-((S)-2-isonicotinoylamino-4-methylvalerylamino)-3-methylbutyl]-3-phenylcyclopropenone] |  |  |  |  | 0.4 |  |
| CC(C)C[C@H](NC(=O)COCc1ccccc1)C(=O)N[C@@H](C(C)C)[C@@H](O)c1c(-c2ccccc2)c1=O [54 (No. 166), 2-[(1S, 2S)-2-((S)-2-benzyloxyacetylamino-4-methylvalerylamino)-1-hydroxy-3-methylbutyl]-3-phenylcyclopropenone] |  |  |  |  | 1.1 |  |
| COc1ccccc1OCC(=O)N[C@@H](CC(C)C)C(=O)N[C@@H](C(C)C)[C@@H](O)c1c(-c2ccccc2)c1=O [53 (No. 161)] |  |  |  |  | 2.3 |  |
